From US12441727B2, “Tricyclic compounds as inhibitors of KRAS” (Incyte Corporation, priority 2021, dated 2025) come the findings set out here.

For data set [1], the system named is KRAS_G12C pERK in MIA PaCa-2 cells. As to the kind of experiment: Whole Blood pERK1/2 HTRF assay (KRAS_G12C WB pERK assay). The note with it: Homo sapiens, compound in whole blood, 4 hours, read-out: G12C_WB_pERK. The format is cell-based, human. In short, it runs like this: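 MIA PaCa-2 (KRAS G12C) cells were grown 2 days, then exposed for 4 h at 37 °C to compound spiked into whole blood (0.5% DMSO). After PBS washes and lysis, phospho-ERK1/2 was read by HTRF at 665/620 nm, and the IC50 came from a curve fit.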
A general note: TR-FRET usually uses a lanthanide donor and a delayed reading to cut background.

The nature of data set [2]: Human whole blood stability. The following applies: percent remaining at 4 hr, 1 μM, 37° C. The format is in vitro ADME. The procedure: The whole blood stability of the exemplified compounds was determined by LC-MS/MS. The 96-Well Flexi-Tier™ Block (Analytical Sales & Services, Inc, Flanders, NJ) is used for the incubation plate containing 1.0 mL glass vials with 0.5 mL of blood per vial (pooled gender, human whole blood sourced from BIOIVT, Hicksville, NY or similar). Blood is pre-warmed in water bath to 37° C. for 30 minutes. 96-deep well analysis plate is prepared with the addition of 100 μL ultrapure water/well. 50 μL chilled ultrapure water/well is added to 96-deep well sample collection plate and covered with a sealing mat. 1 μL of 0.5 mM compound working solution (DMSO:water) is added to the blood in incubation plate to reach final concentrations of 1 μM, mixed by pipetting thoroughly and 50 μL is transferred 50 into the T=0 wells of the sample collection plate. Blood is allowed to sit in the water for 2 minutes and then 400 μL stop solution/well is added (acetonitrile containing an internal standard). The incubation plate is placed in the Incu-Shaker CO2 Mini incubator (Benchmark Scientific, Sayreville, NJ) at 37° C. with shaking at 150 rpm. At 1, 2 and 4-hr, the blood samples are mixed thoroughly by pipetting and 50 μL is transferred into the corresponding wells of the sample collection plate. Blood is allowed to sit in the water for 2 minutes and then 400 μL of stop solution/well is added. The collection plate is sealed and vortexed at 1700 rpm for 3 minutes (VX-2500 Multi-Tube Vortexer, VWR International, Radnor, PA), and samples are then centrifuged in the collection plate at 3500 rpm for 10 minutes (Allegra X-14R Centrifuge Beckman Coulter, Indianapolis, IN). 100 μL of supernatant/well is transferred from the sample collection plate into the corresponding wells of the analysis plate. The final plate is vortexed at 1700 rpm for 1 minute and analyze samples by LC-MS/MS. The peak area ratio of the 1, 2, and 4 hr samples relative to T=0 is used to determine the percent remaining. The natural log of the percent remaining versus time is used determine a slope to calculate the compounds half-life in blood (t1/2=0.693/slope).

The target of data set [3] is KRAS G12C (Homo sapiens, UniProt P01116, G12C). As to the kind of experiment: GDP-GTP exchange assay (KRAS_G12C exchange assay). The note with it: bodipy-loaded KRAS G12C 2.5 nM, SOS1 150 nM, 2 hours pre-incubation with inhibitor; read-out: G12C_exchange. It is filed as biochemical. In outline: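 Bodipy-GDP-loaded KRAS G12C (2.5 nM final) preincubated 2 hours with compound in 25 mM Hepes pH 7.5, 50 mM NaCl, 10 mM MgCl2, 0.01% Brij-35; exchange started with 500 uM GppNHp and 150 nM SOS1, run 2 hours at ambient temperature. Fluorescence read at 485/520 nm; IC50 by four-parameter logistic fit.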
KRAS G12C, sequence (P01116 1-188 isoform P01116-2 G12C): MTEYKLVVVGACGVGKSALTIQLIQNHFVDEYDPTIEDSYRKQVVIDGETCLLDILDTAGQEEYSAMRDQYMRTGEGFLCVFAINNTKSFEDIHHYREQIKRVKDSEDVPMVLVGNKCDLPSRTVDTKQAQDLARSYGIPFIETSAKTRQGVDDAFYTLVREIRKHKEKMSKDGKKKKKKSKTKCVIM

Data set [4] concerns KRAS_G12C pERK. Description: Cellular pERK HTRF assay (KRAS_G12C pERK assay). The format is cell-based, human. The note with it: Homo sapiens, 4 h, KRAS G12C cells, 4 hours incubation with compound; read-out: G12C_pERK. In short, it runs like this: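 KRAS-mutant (G12C, G12D, G12V) and KRAS WT cancer cell lines, plated overnight in RPMI/10% FBS, were treated with compound (0.1% DMSO) at 37 °C for 4 h (G12C, G12V) or 2 h (G12D). Lysates were probed with anti-phospho-ERK1/2 HTRF antibody pair read at 665/620 nm; IC50 fitted.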

For `Cc1cccc(-c2c(C)cc3c(nc(N4CC(C)(N(C)C)C4)c4ncn([C@H]5CCN(C(=O)/C=C/CF)[C@H](CC#N)C5)c43)c2F)c1Cl` [Example 12, 2-((2S,4S)-4-(7-(2-chloro-3-methylphenyl)-4-(3-(dimethylamino)-3-methylazetidin-1-yl)-6-fluoro-8-methyl-1H-imidazo[4,5-c]quinolin-1-yl)-1-((E)-4-fluorobut-2-enoyl)piperidin-2-yl)acetonitrile], the IC50 in data set [1], in data set [3] and in data set [4] was no more than 50 nM in each case. For the same compound, the “Human whole blood stability at 4 hr” value in data set [2] is listed as “††† (WBS >90%)”.
Consider `C=C(F)C(=O)N1CC[C@H](n2cnc3c(O[C@@H](C)[C@@H]4CCCN4C)nc4c(F)c(-c5cccc(C)c5Cl)c(C)cc4c32)C[C@H]1CC#N` [Example 13, 2-((2S,4S)-4-(7-(2-chloro-3-methylphenyl)-6-fluoro-8-methyl-4-((S)-1-((S)-1-methylpyrrolidin-2-yl)ethoxy)-1H-imidazo[4,5-c]quinolin-1-yl)-1-(2-fluoroacryloyl)piperidin-2-yl)acetonitrile], for which the IC50 is 100 to 1000 nM in data set [1], no more than 50 nM in data set [3] and no more than 50 nM in data set [4]. Besides, the “Human whole blood stability at 4 hr” value in data set [2] is “†† (WBS >70% but ≤90%)”.
As for `COC/C=C/C(=O)N1CC[C@H](n2nnc3c(O[C@@H](C)[C@@H]4CCCN4C)nc4c(F)c(-c5ncc(F)c6ccccc56)c(C)cc4c32)C[C@H]1CC#N` [Example 21, 2-((2S,4S)-4-(6-fluoro-7-(4-fluoroisoquinolin-1-yl)-8-methyl-4-((S)-1-((S)-1-methylpyrrolidin-2-yl)ethoxy)-1H-[1,2,3]triazolo[4,5-c]quinolin-1-yl)-1-((E)-4-methoxybut-2-enoyl)piperidin-2-yl)acetonitrile], the IC50 in data set [1], in data set [3] and in data set [4] was no more than 50 nM in each case. The “Human whole blood stability at 4 hr” value in data set [2] was “††† (WBS >90%)”.
